Assay type in all cases: cell-based
Test [1] concerns the target T1, human RXRα ligand binding domain (Gal4 hybrid receptor) (Homo sapiens, UniProt P19793).
T1 construct: expressed in transfected cells; host or cells: HEK293T
T1 sequence (P19793 227-458 limits assumed): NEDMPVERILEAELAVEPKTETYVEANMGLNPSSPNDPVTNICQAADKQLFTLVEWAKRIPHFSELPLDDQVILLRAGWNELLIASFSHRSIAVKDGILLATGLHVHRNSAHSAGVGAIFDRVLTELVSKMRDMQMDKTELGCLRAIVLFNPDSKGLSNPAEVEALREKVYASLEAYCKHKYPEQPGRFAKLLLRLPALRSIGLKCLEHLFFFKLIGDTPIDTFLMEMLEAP
Briefly: Gal4 hybrid reporter gene assay RXRα. Particulars: HEK293T cells, n ≥ 4, read-out: RXRα EC50 ± SEM. Here is the method:
(§1) The 20 top-ranked synthetic compounds were selected and tested in vitro for their modulatory activity on RXR (Supplementary Table 1). Compounds were tested in specific hybrid reporter gene assays for RXRα, RXRβ and RXRγ modulation[39]–[41]. These assays rely on a constitutively expressed hybrid receptor composed of the respective human RXR ligand binding domain and the DNA binding domain of the Gal4 receptor from yeast. A Gal4 responsive firefly luciferase was used as reporter gene and constitutively expressed renilla luciferase served as internal control for transfection efficiency and test compound toxicity. All selected compounds were tested at 50 µM concentration on RXRα and for active compounds (Supplementary Fig. 1), dose response curves were recorded on all three RXR subtypes.
(§2) The Gal4 hybrid reporter gene assays were conducted as reported previously[39]–[41]. pFA-CMV-based constructs comprising the ligand binding domain of the human nuclear receptor in question were used as expression plasmids for the chimera receptors. pFR-Luc (Stratagene) served as reporter plasmid and pRL-SV40 (Promega) for normalization of transfection efficiency and cell growth. The assays were conducted in 96-well format in HEK293T cells that were cultured as described previously[39]–[41]. Transient transfection was carried out using Lipofectamine LTX reagent (Invitrogen) according to the manufacturer’s protocol. After transfection and incubation with test compounds (12–14 h), cells were assayed for luciferase activity using Dual-Glo™ Luciferase Assay System (Promega) according to the manufacturer’s protocol. Luminescence was measured with an Infinite M200 luminometer (Tecan Deutschland GmbH). All hybrid assays were validated with reference agonists (PPARα: GW7647; PPARγ: pioglitazone; PPARδ: L165,041; LXRα/β: T0901317; FXR: GW4064; RXRs: bexarotene; RARs: tretinoin; VDR: calcitriol; CAR: CITCO; PXR: SR12813) which yielded EC50 values in agreement with literature. The assays were conducted in duplicates with at least two independent repeats and for active compounds repeated without hybrid receptor coding DNA for every test compound at the highest tested concentration to exclude unspecific effects.
(§3) Supplementary Figure 2. Dose-response curves for RXRα activation. Compounds were tested in specific hybrid reporter gene assays for RXRα, RXRβ and RXRγ modulation.^1–3 These assays rely on a constitutively expressed hybrid receptor composed of the respective human RXR ligand binding domain and the DNA binding domain of the Gal4 receptor from yeast. A Gal4 responsive firefly luciferase was used as reporter gene and constitutively expressed renilla luciferase served as internal control for transfection efficiency and test compound toxicity. […]

Test [2] deals with T2, human RXRβ ligand binding domain (Gal4 hybrid receptor) (Homo sapiens, UniProt P28702).
T2 construct: expressed in transfected cells; host or cells: HEK293T
T2 sequence (P28702 296-529 limits assumed): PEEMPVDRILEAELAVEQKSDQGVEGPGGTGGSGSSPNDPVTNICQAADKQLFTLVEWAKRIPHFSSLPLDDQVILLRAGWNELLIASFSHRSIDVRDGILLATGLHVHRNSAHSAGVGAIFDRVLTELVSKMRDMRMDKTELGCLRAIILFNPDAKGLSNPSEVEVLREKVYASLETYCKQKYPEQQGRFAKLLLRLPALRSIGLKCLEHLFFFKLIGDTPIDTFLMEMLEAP
Briefly: Gal4 hybrid reporter gene assay RXRβ. Particulars: HEK293T cells, n ≥ 4, read-out: RXRβ EC50 ± SEM. Here is the method: as §1, §2, §3

Test [3] concerns the target T3, human RXRγ ligand binding domain (Gal4 hybrid receptor) (Homo sapiens, UniProt P48443).
T3 construct: expressed in transfected cells; host or cells: HEK293T
T3 sequence (P48443 231-459 limits assumed): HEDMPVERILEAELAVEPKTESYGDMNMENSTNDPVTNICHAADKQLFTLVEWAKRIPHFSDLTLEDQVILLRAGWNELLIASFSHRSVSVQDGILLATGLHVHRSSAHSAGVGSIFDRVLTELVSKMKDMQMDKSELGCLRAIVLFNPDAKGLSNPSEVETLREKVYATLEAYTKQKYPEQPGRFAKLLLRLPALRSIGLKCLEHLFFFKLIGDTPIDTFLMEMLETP
Briefly: Gal4 hybrid reporter gene assay RXRγ. Particulars: HEK293T cells, n ≥ 4, read-out: RXRγ EC50 ± SEM. As for the experimental part: as §1, §2, §3

As to `Cc1ccc(NC2=NC(=O)/C(=C/c3ccc(O)cc3)S2)cc1C` [Compound 5], the EC50 in test [1] is 17 ± 1 µM; in test [2] it was 14.7 ± 0.8 µM; in test [3], 15 ± 0.6 µM.

For `CC/C(=N/NC(=S)Nc1ccc(Cl)cc1Cl)c1ccc(O)cc1` [Compound 8], the values for the EC50 in test [1], in test [2] and in test [3] were 23.7 ± 0.7 µM, 25.6 ± 0.4 µM and 32 ± 3 µM, respectively.

Take `CC(NC(=O)c1cccc(OCc2ccccc2)c1)c1ccccc1` (stereo not drawn) [Compound 6]: the results for the EC50 in test [1], in test [2] and in test [3] were 16.5 ± 0.6 µM, 16.6 ± 0.2 µM and 16 ± 4 µM, respectively.

The values are drawn from article PMC6220272, “Scaffold-Hopping from Synthetic Drugs by Holistic Molecular Representation” (Scientific Reports, 2018).
